According to ChEMBL document CHEMBL4257461, “Schizophrenia: synthetic strategies and recent advances in drug design” (Medchemcomm, 2018):
One block for each molecule: values may come before it.

Key:
[1] = Tmax in human at 9.75 mg, im administered as single dose; assay type: ADME, organism-based; conditions: in vivo
[2] = Drug absorption in po dosed human; assay type: ADME, organism-based; conditions: in vivo, read-out: Drug absorption
[3] = Oral bioavailability in human; assay type: ADME, organism-based; conditions: in vivo
[4] = Half life in po dosed human plasma; assay type: ADME, organism-based
[5] = Half life in iv dosed human plasma; assay type: ADME, organism-based
[6] = Half life in im dosed human plasma; assay type: ADME, organism-based
[7] = Terminal half life in po dosed human; conditions: in vivo
[8] = Drug excretion in po dosed human; conditions: in vivo

Structure (SMILES): CN1CCN(C2=Nc3cc(Cl)ccc3Nc3ccccc32)CC1 [CLOZAPINE]
Fa [2]: 90 to 95%
bioavailability [3]: 50 to 60%

Structure (SMILES): O=C1[C@@H]2[C@H]3CC[C@H](C3)[C@@H]2C(=O)N1C[C@@H]1CCCC[C@H]1CN1CCN(c2nsc3ccccc23)CC1 [LURASIDONE]
Fa [2]: 9 to 19%

Second part, the molecule after the results:

Tmax [1]: 3 h
Structure (SMILES): O=C1CCc2ccc(OCCCCN3CCN(c4cccc(Cl)c4Cl)CC3)cc2N1 [ARIPIPRAZOLE]

half-life [4]: 24 h
half-life [5]: 14 h
half-life [6]: 21 h
Structure (SMILES): O=C(CCCN1CCC(O)(c2ccc(Cl)cc2)CC1)c1ccc(F)cc1 [HALOPERIDOL]

half-life [7]: 6 h
dose excreted [8]: < 1%
Structure (SMILES): OCCOCCN1CCN(C2=Nc3ccccc3Sc3ccccc32)CC1 [QUETIAPINE]
